Source: publication PMC7031696 (Cell chemical biology, 2019)

Test system: 3D7-MR4 trophozoite parasite-infected RBCs
Test: Metabolomic profiling (hydrophilic metabolite changes, UHPLC-MS)
Assay type: cell-based, Plasmodium falciparum

Ferroquine [reference compound]
Log2(fold changes) adenosine (metabolite adenosine, log2 fold change): 0.0000
Log2(fold changes) alanine/sarcosine (metabolite alanine/sarcosine, log2 fold change): 0.0137
Log2(fold changes) anthranilate (metabolite anthranilate, log2 fold change): 0.0000
Log2(fold changes) arginine (metabolite arginine, log2 fold change): 0.0962
Log2(fold changes) asparagine (metabolite asparagine, log2 fold change): 0.2455
Log2(fold changes) aspartate (metabolite aspartate, log2 fold change): 0.0829
Log2(fold changes) biotin (metabolite biotin, log2 fold change): 0.0000
Log2(fold changes) cCMP (metabolite cCMP, log2 fold change): 0.0000
Log2(fold changes) cGMP (metabolite cGMP, log2 fold change): 0.0000
Log2(fold changes) carnitine (metabolite carnitine, log2 fold change): 0.0000
Log2(fold changes) citrate/isocitrate (metabolite citrate/isocitrate, log2 fold change): 0.0063
Log2(fold change) of coenzyme A (metabolite coenzyme A): 0.9119
Log2(fold change) of cyclic-AMP (metabolite cyclic-AMP): 0.1031
Log2(fold change) of cytidine (metabolite cytidine): 0.1024
Log2(fold change) of dAMP (metabolite dAMP): -0.3497
Log2(fold change) of dATP (metabolite dATP): 0.0366
Log2(fold change) of dCDP (metabolite dCDP): -0.2652
Log2(fold change) of dCMP (metabolite dCMP): -0.1471
Log2(fold change) of dCTP (metabolite dCTP): 0.0304
Log2(fold change) of dGDP/ADP (metabolite dGDP/ADP): -0.1961
Log2(fold change) of dGMP/AMP (metabolite dGMP/AMP): -0.3182
Log2(fold change) of dGTP/ATP (metabolite dGTP/ATP): 0.0666
Log2(fold change) of dTDP (metabolite dTDP): -0.3263
Log2(fold change) of dTMP (metabolite dTMP): -0.4999
Log2(fold change) of dTTP (metabolite dTTP): 0.0866
Log2(fold change) of dUMP (metabolite dUMP): 0.0000
Log2(fold change) of dUTP (metabolite dUTP): 0.0000
Log2(fold change) of deoxyguanosine (metabolite deoxyguanosine): 0.0000
Log2(fold change) of deoxyinosine (metabolite deoxyinosine): 0.0000
Log2(fold change) of deoxyribose-phosphate (metabolite deoxyribose-phosphate): 0.0000
Log2(fold change) of deoxyuridine (metabolite deoxyuridine): 0.0000
Log2(fold change) of dihydroorotate (metabolite dihydroorotate): 0.1627
Log2(fold change) of folate (metabolite folate): 0.1440
Log2(fold change) of fructose-1-6-bisphosphate (metabolite fructose-1-6-bisphosphate): 0.3162
Log2(fold change) of fructose-6-phosphate (metabolite fructose-6-phosphate): 0.3514
Log2(fold change) of fumarate (metabolite fumarate): -0.0660
Log2(fold change) of glucono-lactone (metabolite glucono-lactone): 0.0470
Log2(fold change) of glucose-1/6-phosphate (metabolite glucose-1/6-phosphate): 0.0000
Log2(fold change) of glutamate (metabolite glutamate): 0.0411
Log2(fold change) of glutamine (metabolite glutamine): 0.1003
Log2(fold change) of glutathione (metabolite glutathione): 0.0000
Log2(fold change) glutathione disulfide (metabolite glutathione disulfide): -0.3466
Log2(fold change) glycerate (metabolite glycerate): 0.0000
Log2(fold change) guanine (metabolite guanine): 0.0000
Log2(fold change) guanosine (metabolite guanosine): -0.2330
Log2(fold change) histidine (metabolite histidine): 0.0507
Log2(fold change) homocysteic acid (metabolite homocysteic acid): 0.0000
Log2(fold change) hydroxyphenylpyruvate (metabolite hydroxyphenylpyruvate): 0.0000
Log2(fold change) hydroxyproline/Aminolevulinate (metabolite hydroxyproline/Aminolevulinate): 0.0365
Log2(fold change) hypoxanthine (metabolite hypoxanthine): 0.0000
Log2(fold change) indole (metabolite indole): 0.0000
Log2(fold change) inosine (metabolite inosine): 0.4396
Log2(fold change) isoleucine (metabolite isoleucine): 0.0740
Log2(fold change) lactate (metabolite lactate): 0.1682
Log2(fold change) leucine (metabolite leucine): 0.0991
Log2(fold change) lysine (metabolite lysine): 0.0854
Log2(fold change) malate (metabolite malate): -0.0032
Log2(fold change) maleic acid (metabolite maleic acid): 0.0142
Log2(fold change) methionine (metabolite methionine): 0.2846
Log2(fold change) myo-inositol (metabolite myo-inositol): 0.0000
Log2(fold change) nicotinamide mononucleotide (metabolite nicotinamide mononucleotide): -0.0133
Log2(fold change) nicotinate (metabolite nicotinate): 0.1646
Log2(fold change) ornithine (metabolite ornithine): 0.0000
Log2(fold change) orotate (metabolite orotate): 0.0201
Log2(fold change) orotidine-5'-phosphate (metabolite orotidine-5'-phosphate): 0.1401
Log2(fold change) oxaloacetate (metabolite oxaloacetate): 0.0000
Log2(fold change) p-aminobenzoate (metabolite p-aminobenzoate): 0.0000
Log2(fold change) p-hydroxybenzoate (metabolite p-hydroxybenzoate): 0.0000
Log2(fold change) pantothenate (metabolite pantothenate): 0.1559
Log2(fold change) phenylalanine (metabolite phenylalanine): 0.0217
Log2(fold change) phenylpyruvate (metabolite phenylpyruvate): 0.0000
Log2(fold change) phosphoenolpyruvate (metabolite phosphoenolpyruvate): 0.1068
Log2(fold change) prephenate (metabolite prephenate): 0.0000
Log2(fold change) proline (metabolite proline): 0.0000
Log2(fold change) pyridoxine (metabolite pyridoxine): 0.3553
Log2(fold change) pyruvate (metabolite pyruvate): -0.3114
Log2(fold change) riboflavin (metabolite riboflavin): 0.0000
Log2(fold change) ribose (metabolite ribose): 0.0000
Log2(fold change) ribose-phosphate (metabolite ribose-phosphate): 0.0000
Log2(fold change) ribulose-5-phosphate (metabolite ribulose-5-phosphate): 0.1038
Log2(fold change) serine (metabolite serine): 0.2426
Log2(fold change) sn-glycerol-3-phosphate (metabolite sn-glycerol-3-phosphate): 0.0527
Log2(fold change) succinate/Methylmalonic acid (metabolite succinate/Methylmalonic acid): -0.0206
Log2(fold change) succinyl-CoA/methylmalonyl-CoA (metabolite succinyl-CoA/methylmalonyl-CoA): 0.0000
Log2(fold change) taurine (metabolite taurine): 0.3032
Log2(fold change) thiamine (metabolite thiamine): 0.1205
Log2(fold change) threonine/homoserine (metabolite threonine/homoserine): 0.0762
Log2(fold change) thymidine (metabolite thymidine): 0.0000
Log2(fold changes) thymine (metabolite thymine, log2 fold change): 0.0000
Log2(fold changes) trehalose-6-Phosphate (metabolite trehalose-6-Phosphate, log2 fold change): 0.0000
Log2(fold changes) tryptophan (metabolite tryptophan, log2 fold change): -0.1782
Log2(fold changes) tyrosine (metabolite tyrosine, log2 fold change): 0.0328
Log2(fold changes) uridine (metabolite uridine, log2 fold change): 0.0000
Log2(fold changes) valine (metabolite valine, log2 fold change): 0.0750
Log2(fold changes) xanthine (metabolite xanthine, log2 fold change): 0.0000
Log2(fold changes) xanthosine-5-phosphate (metabolite xanthosine-5-phosphate, log2 fold change): 0.2017
Log2(fold changes) xanthosine (metabolite xanthosine, log2 fold change): -0.1521
Log2(fold changes) xylose (metabolite xylose, log2 fold change): 0.0000
